What was measured:
[1] = target: T1, cytochrome P450 2D6 (CYP2D6) (Homo sapiens, UniProt P10635); assay: NADPH-dependent inactivation of bufuralol […]'-hydroxylation in CYP2D6 Supersomes; format: cell-based
Target sequence in this assay (P16435 2-677): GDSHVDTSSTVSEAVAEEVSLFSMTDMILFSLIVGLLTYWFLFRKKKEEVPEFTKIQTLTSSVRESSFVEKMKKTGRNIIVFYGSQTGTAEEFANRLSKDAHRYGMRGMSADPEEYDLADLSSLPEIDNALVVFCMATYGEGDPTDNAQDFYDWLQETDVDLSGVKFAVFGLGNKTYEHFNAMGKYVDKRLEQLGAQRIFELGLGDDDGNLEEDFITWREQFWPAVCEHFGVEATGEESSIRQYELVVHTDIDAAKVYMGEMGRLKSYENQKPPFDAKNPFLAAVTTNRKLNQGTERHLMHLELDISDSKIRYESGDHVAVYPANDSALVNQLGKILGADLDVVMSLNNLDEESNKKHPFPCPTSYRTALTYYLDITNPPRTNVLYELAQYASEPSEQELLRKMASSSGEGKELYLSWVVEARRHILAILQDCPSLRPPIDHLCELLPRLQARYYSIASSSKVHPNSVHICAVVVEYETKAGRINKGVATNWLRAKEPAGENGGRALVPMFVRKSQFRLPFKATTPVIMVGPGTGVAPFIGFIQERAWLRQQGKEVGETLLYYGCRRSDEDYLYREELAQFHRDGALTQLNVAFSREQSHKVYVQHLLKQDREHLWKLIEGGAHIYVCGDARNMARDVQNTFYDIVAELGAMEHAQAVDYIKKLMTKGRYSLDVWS
Target sequence in this assay (P10635 whole entry): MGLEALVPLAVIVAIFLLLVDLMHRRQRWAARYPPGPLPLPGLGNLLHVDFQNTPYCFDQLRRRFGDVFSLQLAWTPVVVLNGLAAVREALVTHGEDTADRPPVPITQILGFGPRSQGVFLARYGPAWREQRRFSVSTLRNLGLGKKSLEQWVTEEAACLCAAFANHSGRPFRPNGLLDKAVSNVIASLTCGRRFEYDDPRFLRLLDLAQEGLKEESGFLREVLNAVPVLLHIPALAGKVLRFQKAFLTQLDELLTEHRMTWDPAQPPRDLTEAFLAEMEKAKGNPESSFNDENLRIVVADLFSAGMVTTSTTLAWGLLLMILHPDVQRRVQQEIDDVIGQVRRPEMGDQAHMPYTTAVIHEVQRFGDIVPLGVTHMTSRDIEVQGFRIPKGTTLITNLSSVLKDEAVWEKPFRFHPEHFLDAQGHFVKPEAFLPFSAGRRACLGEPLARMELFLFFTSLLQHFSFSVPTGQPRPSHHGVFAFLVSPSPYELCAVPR

[2] = target: T1, cytochrome P450 2D6 (CYP2D6); assay: UV-vis spectral binding titration
Target sequence in this assay (P10635 whole entry): as above

SMILES	partition ratio [1]	Kd [2]
CNC(C)Cc1ccc2c(c1)OCO2 (centres unmarked) [MDMA]	91	
CCc1nc(C)c(CN2CCN(c3cc(C(F)(F)F)ccn3)CC2)[nH]1 [EMTPP]		29.8 ± 3.04 µM

From publication PMC4037324 (Drug metabolism letters, 2012)
